The text below walks through data of patent US20200031778A1, “NOVEL 5-SUBSTITUTED IMIDAZOLYLMETHYL DERIVATIVES” (Bayer CropScience Aktiengesellschaft, priority 2016, published 2020).

The data set in a line: Log P by HPLC on reversed phase columns (EEC directive 79/831 Annex V.A8; methods [a], [b], [c]). The format is physicochemical. The method in brief:
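Log P derived from retention times, interpolated linearly between bracketing straight-chain alkan-2-ones (3–16 carbons) of known Log P. Eluents ran acetonitrile 10% to 95% against water with 0.1% formic acid ([a], acidic), 0.001 M ammonium acetate ([b], neutral) or 0.1% phosphoric acid ([c], acidic); UV read-out.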

For the compound `CC(O)(Cn1cncc1F)c1cnc(Oc2ccc(OC(F)(F)F)cc2)cc1C(F)(F)F` (stereo not shown) [I-241], the LogP was 2.51^[a]. For the compound `N#Cc1cncn1CC(O)(c1ccc(Cl)cc1F)C1(F)CC1` (stereo not shown) [I-356], the LogP is 2.36^[a]. As for `OC(Cn1cncc1Br)c1ccc(Oc2ccccc2)cc1Cl` (stereo not shown) [I-27], the LogP is 2.21^[a].

Regarding `N#Cc1cncn1CC(O)(c1cccc(F)c1Cl)C1(Cl)CC1` (stereo not shown) [I-557], the LogP is 2.25^[a]. In the case of `OC(Cn1cncc1Cl)c1ccc(Oc2ccc(Cl)nc2)cc1C(F)(F)F` (stereo not shown) [I-19], the LogP is 2.14^[a]. With `COCOC(Cn1cncc1C#N)c1ccc(Oc2ccc(Cl)cc2)cc1C(F)(F)F` (stereo not shown) [I-82], the LogP was 4.03^[a]. The same measure for `N#Cc1cncn1CC(O)(c1c(F)ccc(Cl)c1F)C1(F)CC1` (stereo not shown) [I-587]: 2.28^[a]; for `C[Si](C)(C)CCC(O)(Cn1cncc1C(F)(F)F)C1(Cl)CC1` (stereo not shown) [I-691]: 4.24^[a]; for `N#Cc1cncn1CC(O)(C#CCC(Cl)CCl)C1(F)CC1` (stereo not shown) [I-604]: 2.08^[a]. For `N#Cc1cncn1CC(O)(c1ccc(F)c(Cl)c1Cl)C1(F)CC1` (stereo not shown) [I-624], the LogP was 2.45^[a]. Regarding `N#Cc1cncn1CC(=O)c1ccc(Oc2ccc(S(F)(F)(F)(F)F)cc2)nc1C(F)(F)F` [IX-135], the LogP was 3.55^[a]. Take `CC(O)(Cn1cncc1C#N)c1ccc(Oc2ccc(Br)cc2)cc1F` (stereo not shown) [I-191]: the LogP was 3.29^[a].

For the compound `N#Cc1cncn1CC(O)(c1ccc(Br)cc1Cl)C1(F)CC1` (stereo not shown) [I-376], the LogP was 2.76^[a]. `N#Cc1cncn1CC(O)(c1cc(F)c(Br)cc1Cl)C1(F)CC1` (stereo not shown) [I-682]: the LogP is 2.63^[a].

With `CCCC#Cc1ccc(C(O)(Cn2cncc2C#N)C2(Cl)CC2)c(Cl)c1` (stereo not shown) [I-655], the LogP was 3.65^[a].

For `CCCC(O)(Cn1cncc1C#N)c1ccc(Cl)cc1C(F)(F)F` (stereo not shown) [I-461], the LogP was 3.05^[a].

As for `CC(O)(Cn1cncc1Cl)c1ccc(Oc2ccc(Cl)cc2)cc1C(F)(F)F` (stereo not shown) [I-168], the LogP was 2.80^[a]. In the case of `CC(=O)c1cncn1CC(C)(O)c1ccc(Oc2ccc(Br)cc2)cc1Cl` (stereo not shown) [I-197], the LogP is 3.07^[a].

As for `COC(Cn1cncc1Cl)c1ccc(Oc2ccc(Br)cc2)cc1Br` (stereo not shown) [I-52], the LogP is 3.76^[a]. Regarding `CCOC(Cn1cncc1C#N)c1ccc(Oc2ccc(Cl)cc2)cc1C(F)(F)F` (stereo not shown) [I-84], the LogP is 4.54^[a]. On to `N#Cc1cncn1CC(O)c1ccc(Oc2ccccc2)cc1Cl` (stereo not shown) [I-76], for which the LogP was 2.70^[a]. Consider `N#Cc1cncn1CC(O)c1ccccc1F` (stereo not shown) [I-139], for which the LogP is 1.31^[a]. The figure for `N#Cc1cncn1CC(O)(CCC1CCCC1)C1(F)CC1` (stereo not shown) [I-598] is 3.00^[a].

Consider `CC(=O)c1cncn1CC(C)(O)c1ccc(Oc2ccc(C(F)(F)F)cc2)cc1C(F)(F)F` (stereo not shown) [I-207], for which the LogP was 3.27^[a]. `OC(Cn1cncc1F)c1cnc(Oc2ccc(Cl)cc2F)cc1C(F)(F)F` (stereo not shown) [I-113]: the LogP is 2.35^[a].

Regarding `CC(C)C(O)(Cn1cncc1C#N)c1ccc(F)cc1Br` (stereo not shown) [I-424], the LogP was 2.69^[a]. With `CC(O)(Cn1cncc1C#N)c1ccc(Oc2ccc(I)cc2)cc1Cl` (stereo not shown) [I-202], the LogP was 3.73^[a]. With `COC(Cn1cncc1C(F)(F)F)c1ccc(Oc2ccc(Cl)cc2)cc1F` (stereo not shown) [I-93], the LogP was 4.34^[a].

With `N#Cc1cncn1CC(O)(CC1CC1)c1cc(Cl)cc(Br)c1` (stereo not shown) [I-531], the LogP is 2.93^[a]. In the case of `OC(Cn1cncc1Cl)c1ccc(Oc2ccc(Br)cc2)cc1Br` (stereo not shown) [I-45], the LogP was 2.71^[a].

For the compound `N#Cc1cncn1CC(O)(CCCC1CCCCC1)CC1CC1` (stereo not shown) [I-666], the LogP is 3.91^[a].

For the compound `N#Cc1cncn1CC(O)(CC1CC1)c1cc(F)cc(Cl)c1` (stereo not shown) [I-497], the LogP is 2.54^[a]. The same measure for `CC(O)(Cn1cncc1C#N)c1cnc(Oc2ccc(Cl)cc2F)cc1C(F)(F)F` (stereo not shown) [I-233]: 3.29^[a]; for `N#Cc1cncn1CC(O)(c1cc(Cl)cc(F)c1Cl)C1(F)CC1` (stereo not shown) [I-571]: 2.52^[a].

As for `CCOC(Cn1cncc1Br)c1ccc(Oc2ccc(Cl)cc2)cc1C(F)(F)F` (stereo not shown) [I-33], the LogP was 4.16^[a]. The same measure for `COc1c(Cl)ccc(C(O)(Cn2cncc2C#N)C2(F)CC2)c1F` (stereo not shown) [I-527]: 2.36^[a].

On to `N#Cc1cncn1CC(O)(c1cc(Cl)cc(Cl)c1F)C1(Cl)CC1` (stereo not shown) [I-609], for which the LogP was 2.76^[a]. Turning to `CC(O)(Cn1cncc1C#N)c1ccc(Oc2ccc(Cl)cc2)cc1Br` (stereo not shown) [I-216], the LogP is 3.50^[a].

As for `N#Cc1cncn1CC(O)(c1c(F)cc(F)cc1F)C1(F)CC1` (stereo not shown) [I-518], the LogP is 2.07^[a].

Consider `CC(C)(C)CC(O)(Cn1cncc1C#N)c1ccccc1` (stereo not shown) [I-242], for which the LogP was 2.77^[a].

For the compound `N#Cc1cncn1CC(O)(CC1CC1)c1cc(Cl)ccc1F` (stereo not shown) [I-516], the LogP is 2.43^[a].

Turning to `CC(O)(Cn1cncc1Br)c1ccc(Oc2ccc(Cl)cc2)cc1Cl` (stereo not shown) [I-198], the LogP was 2.75^[a].

For `N#Cc1cncn1CC(O)(c1cc(F)cc(Br)c1)C1(F)CC1` (stereo not shown) [I-537], the LogP was 2.51^[a]. As for `N#Cc1cncn1CC(O)(CC1CC1)c1cc(Cl)cc(Cl)c1` (stereo not shown) [I-503], the LogP is 2.28^[a]. As to `CC(O)(Cn1cncc1C#N)c1ccc(Oc2ccc(Cl)cc2)cc1F` (stereo not shown) [I-188], the LogP was 3.20^[a]. Regarding `N#Cc1cncn1CC(O)(c1cc(Cl)c(F)cc1F)C1(F)CC1` (stereo not shown) [I-577], the LogP is 2.42^[a]. In the case of `CC(O)(Cn1cncc1Cl)c1ccc(Oc2ccc(I)cc2)cc1Br` (stereo not shown) [I-187], the LogP is 3.25^[a]. For `CCC(O)(Cn1cncc1C#N)c1ccc(Cl)cc1` (stereo not shown) [I-222], the LogP was 2.32^[a]. As for `OC(Cn1cncc1Br)c1ccc(Oc2ccc(Br)cc2)cc1Br` (stereo not shown) [I-44], the LogP was 2.78^[a]. On to `CC(O)(Cn1cncc1F)c1ccc(Oc2ccc(S(F)(F)(F)(F)F)cc2)nc1C(F)(F)F` (stereo not shown) [I-297], for which the LogP was 2.62^[a]. As to `CCOC(Cn1cncc1F)c1ccc(Oc2ccc(Cl)cc2)cc1C(F)(F)F` (stereo not shown) [I-107], the LogP is 3.54^[a].

Turning to `N#Cc1cncn1CC(=O)c1cnc(Oc2ccc(S(F)(F)(F)(F)F)cc2)cc1C(F)(F)F` [IX-81], the LogP was 3.67^[a]. Regarding `N#Cc1cncn1CC(O)(c1cc(Cl)ccc1Cl)C1(Cl)CC1` (stereo not shown) [I-336], the LogP is 2.56^[a]. For `CCCCC(O)(Cn1cncc1C#N)c1ccccc1F` (stereo not shown) [I-287], the LogP is 2.51^[a]. Take `N#Cc1cncn1CC(O)c1ccc(Oc2ccc(Br)cn2)cc1Cl` (stereo not shown) [I-70]: the LogP was 2.63^[a].

In the case of `N#Cc1cncn1CC(O)(c1c(F)cccc1F)C1(F)CC1` (stereo not shown) [I-520], the LogP is 1.94^[a]. `C[Si](C)(C)CC(O)(Cn1cncc1C#N)c1ccc(F)cc1` (stereo not shown) [I-227]: the LogP is 3.05^[a].

As for `CC(O)(Cn1cncc1F)c1cnc(Oc2ccc(Cl)cc2F)cc1C(F)(F)F` (stereo not shown) [I-229], the LogP was 2.43^[a]. Take `CC1(C(O)(Cn2cncc2C#N)c2ccc(F)cc2F)CC1` (stereo not shown) [I-440]: the LogP was 2.37^[a]. For the compound `CC(O)(Cn1cncc1C#N)c1ccc(Oc2ccc(I)cc2)cc1F` (stereo not shown) [I-189], the LogP was 3.48^[a]. For the compound `N#Cc1cncn1CC(O)(c1ccc(Br)cc1F)C1CC1` (stereo not shown) [I-404], the LogP was 2.62^[a].

On to `N#Cc1cncn1CC(O)(c1cc(Cl)c(Br)cc1Cl)C1(F)CC1` (stereo not shown) [I-684], for which the LogP is 2.86^[a]. With `CC(O)(Cn1cncc1F)c1ccc(Oc2ccc(Br)nc2)nc1C(F)(F)F` (stereo not shown) [I-363], the LogP was 1.84^[a]. The same measure for `C[Si](C)(C)CC(O)(Cn1cncc1C#N)c1ccc(OC(F)(F)F)cc1` (stereo not shown) [I-270]: 3.70^[a]; for `CC(O)(Cn1cncc1C#N)c1cnc(Oc2ccc(C(F)(F)F)cc2)cc1Br` (stereo not shown) [I-253]: 3.27^[a]; for `CC(C)(C)CC(O)(Cn1cncc1C#N)c1ccc(C(F)(F)F)cc1` (stereo not shown) [I-272]: 3.35^[a].

As to `N#Cc1cncn1CC(O)(c1ccc(F)cc1Br)C1CCCCC1` (stereo not shown) [I-479], the LogP is 3.46^[a]. Regarding `OC(Cn1cncc1Cl)c1ccc(Oc2ccc(I)cc2)cc1Cl` (stereo not shown) [I-08], the LogP is 2.94^[a]. The same measure for `CC(C)(C)C(O)(Cn1cncc1C#N)c1ccc(F)cc1F` (stereo not shown) [I-385]: 2.71^[a]; for `CCCCC(O)(Cn1cncc1C#N)c1ccc(OC(F)(F)F)cc1` (stereo not shown) [I-265]: 3.25^[a]; for `N#Cc1cncn1CC(O)(C#CC1CCCC1)CC1CC1` (stereo not shown) [I-452]: 2.62^[a]. Regarding `N#Cc1cncn1CC(O)(c1ccccc1Br)C1(Cl)CC1` (stereo not shown) [I-255], the LogP was 2.37^[a]. Regarding `N#Cc1cncn1CC(O)(c1cc(Br)c(F)cc1F)C1(F)CC1` (stereo not shown) [I-573], the LogP was 2.47^[a]. For the compound `N#Cc1cncn1CC(O)(c1cc(Cl)cc(Br)c1)C1(F)CC1` (stereo not shown) [I-536], the LogP is 2.76^[a]. In the case of `N#Cc1cncn1CC(O)(c1ccc(Cl)c(F)c1)C1(F)CC1` (stereo not shown) [I-446], the LogP is 2.44^[a]. In the case of `N#Cc1cncn1CC(O)(c1ccc(F)c(Br)c1F)C1(Cl)CC1` (stereo not shown) [I-616], the LogP was 2.54^[a]. `CC(C)(C)CC(O)(Cn1cncc1C#N)c1ccc(Cl)cc1F` (stereo not shown) [I-260]: the LogP is 3.44^[a]. Regarding `CC(C)C(O)(Cn1cncc1C#N)c1ccc(Cl)cc1F` (stereo not shown) [I-417], the LogP is 2.68^[a]. For `COc1ccc(Oc2ccc(C(O)Cn3cncc3Cl)c(Cl)n2)c(Cl)c1` (stereo not shown) [I-16], the LogP was 2.23^[a]. Take `COC(C)(Cn1cncc1C#N)c1ccc(Oc2ccc(Br)cc2)cc1C(F)(F)F` (stereo not shown) [I-296]: the LogP was 4.51^[a]. As to `CC(O)(Cn1cncc1Cl)c1ccc(Oc2ccc(Cl)cc2)cc1Cl` (stereo not shown) [I-167], the LogP was 2.86^[a]. In the case of `N#Cc1cncn1CC(O)(CC1CCCCC1)c1ccc(F)cc1Br` (stereo not shown) [I-465], the LogP was 3.78^[a]. For `N#Cc1cncn1CC(O)(c1cnc(Cl)cc1Cl)C1(F)CC1` (stereo not shown) [I-526], the LogP is 1.90^[a]. On to `N#Cc1cncn1CC(O)(c1c(F)cc(F)cc1Cl)C1(Cl)CC1` (stereo not shown) [I-563], for which the LogP was 2.45^[a].

For `N#Cc1cncn1CC(O)(c1ccc(C(F)(F)F)cc1Cl)C1(F)CC1` (stereo not shown) [I-383], the LogP was 2.75^[a].
